From PubChem BioAssay (NCI) come the findings set out here.

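Cultured in 96-well plates, cells were exposed to test compound for 48 hours across five concentrations. TGI denotes the concentration required for complete inhibition of growth.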

For the first assay, the system named is HT29 colon. Nature of the assay: growth of human tumour cells (NCI), 48 h.
`COc1ccc(C2SCC(=O)N2c2ccc(-c3ccc(-n4c(-c5ccccc5)nc5ccccc5c4=O)cc3)cc2)cc1OC` (stereo unspecified) returned a TGI of over 100 µM.

Molecule `C=CCC1(OCc2ccccc2)C(=O)C(=O)OC1C1COC(C)(C)O1` (stereo unspecified) showed a TGI of over 100 µM.

A further assay concerns K-562 leukemia. In words: growth of human tumour cells (NCI), 48 h.
Molecule `COc1cc2c(cc1OC)C1C=NC(C2)c2cc(OC)c(OC)cc21` (stereo unspecified) registered a TGI of over 100 µM.

Regarding `CCC1(c2ccccc2)C(=O)N=C(c2ccccc2)N1CCc1ccccc1` (stereo unspecified), the TGI is over 100 µM.

Take `COc1ccc(C2SCC(=O)N2c2ccc(-c3ccc(-n4c(-c5ccccc5)nc5ccccc5c4=O)cc3)cc2)cc1OC` (stereo unspecified): the TGI came to 96 µM.

`C=CCC1(OCc2ccccc2)C(=O)C(=O)OC1C1COC(C)(C)O1` (stereo unspecified): the TGI is over 100 µM.

The next assay has as its system SW-620 colon. In words: growth of human tumour cells (NCI), 48 h.
`COc1cc2c(cc1OC)C1C=NC(C2)c2cc(OC)c(OC)cc21` (stereo unspecified) displayed a TGI of over 100 µM.

On to `CCC1(c2ccccc2)C(=O)N=C(c2ccccc2)N1CCc1ccccc1` (stereo unspecified), for which the TGI was over 100 µM.

For the molecule `COc1ccc(C2SCC(=O)N2c2ccc(-c3ccc(-n4c(-c5ccccc5)nc5ccccc5c4=O)cc3)cc2)cc1OC` (stereo unspecified), the TGI was over 100 µM.

On to `C=CCC1(OCc2ccccc2)C(=O)C(=O)OC1C1COC(C)(C)O1` (stereo unspecified), for which the TGI was over 100 µM.

In the next assay the test system is HCT-116 colon. In words: growth of human tumour cells (NCI), 48 h.
Molecule `COc1cc2c(cc1OC)C1C=NC(C2)c2cc(OC)c(OC)cc21` (stereo unspecified) showed a TGI of over 100 µM.

`CCC1(c2ccccc2)C(=O)N=C(c2ccccc2)N1CCc1ccccc1` (stereo unspecified) showed a TGI of over 100 µM.

As to `COc1ccc(C2SCC(=O)N2c2ccc(-c3ccc(-n4c(-c5ccccc5)nc5ccccc5c4=O)cc3)cc2)cc1OC` (stereo unspecified), the TGI is over 100 µM.

With `C=CCC1(OCc2ccccc2)C(=O)C(=O)OC1C1COC(C)(C)O1` (stereo unspecified), the TGI is over 100 µM.

Another assay concerns IGROV1 ovarian. In words: growth of human tumour cells (NCI), 48 h.
As to `COc1cc2c(cc1OC)C1C=NC(C2)c2cc(OC)c(OC)cc21` (stereo unspecified), the TGI was over 100 µM.

Molecule `CCC1(c2ccccc2)C(=O)N=C(c2ccccc2)N1CCc1ccccc1` (stereo unspecified) yielded a TGI of over 100 µM.

Molecule `COc1ccc(C2SCC(=O)N2c2ccc(-c3ccc(-n4c(-c5ccccc5)nc5ccccc5c4=O)cc3)cc2)cc1OC` (stereo unspecified) displayed a TGI of over 100 µM.

A further assay deals with U251 CNS. In words: growth of human tumour cells (NCI), 48 h.
Take `COc1cc2c(cc1OC)C1C=NC(C2)c2cc(OC)c(OC)cc21` (stereo unspecified): the TGI is over 100 µM.

In turn, `CCC1(c2ccccc2)C(=O)N=C(c2ccccc2)N1CCc1ccccc1` (stereo unspecified) showed a TGI of over 100 µM.

Molecule `COc1ccc(C2SCC(=O)N2c2ccc(-c3ccc(-n4c(-c5ccccc5)nc5ccccc5c4=O)cc3)cc2)cc1OC` (stereo unspecified) had a TGI of over 100 µM.

For the molecule `C=CCC1(OCc2ccccc2)C(=O)C(=O)OC1C1COC(C)(C)O1` (stereo unspecified), the TGI was over 100 µM.

A further assay relates to A549 NSCLC. In words: growth of human tumour cells (NCI), 48 h.
With `COc1cc2c(cc1OC)C1C=NC(C2)c2cc(OC)c(OC)cc21` (stereo unspecified), the TGI is over 100 µM.

Turning to `CCC1(c2ccccc2)C(=O)N=C(c2ccccc2)N1CCc1ccccc1` (stereo unspecified), the TGI is over 100 µM.

On to `COc1ccc(C2SCC(=O)N2c2ccc(-c3ccc(-n4c(-c5ccccc5)nc5ccccc5c4=O)cc3)cc2)cc1OC` (stereo unspecified), for which the TGI was over 100 µM.

Take `C=CCC1(OCc2ccccc2)C(=O)C(=O)OC1C1COC(C)(C)O1` (stereo unspecified): the TGI is over 100 µM.

For a further assay, the system named is CAKI-1 renal. In words: growth of human tumour cells (NCI), 48 h.
`COc1cc2c(cc1OC)C1C=NC(C2)c2cc(OC)c(OC)cc21` (stereo unspecified) returned a TGI of over 100 µM.

The molecule `CCC1(c2ccccc2)C(=O)N=C(c2ccccc2)N1CCc1ccccc1` (stereo unspecified) had a TGI of over 100 µM.

The molecule `COc1ccc(C2SCC(=O)N2c2ccc(-c3ccc(-n4c(-c5ccccc5)nc5ccccc5c4=O)cc3)cc2)cc1OC` (stereo unspecified) registered a TGI of over 100 µM.

`C=CCC1(OCc2ccccc2)C(=O)C(=O)OC1C1COC(C)(C)O1` (stereo unspecified) yielded a TGI of over 100 µM.

The subject of a further assay is NCI/ADR-RES ovarian. In words: growth of human tumour cells (NCI), 48 h.
In the case of `COc1cc2c(cc1OC)C1C=NC(C2)c2cc(OC)c(OC)cc21` (stereo unspecified), the TGI was over 100 µM.

`CCC1(c2ccccc2)C(=O)N=C(c2ccccc2)N1CCc1ccccc1` (stereo unspecified) registered a TGI of over 100 µM.

With `COc1ccc(C2SCC(=O)N2c2ccc(-c3ccc(-n4c(-c5ccccc5)nc5ccccc5c4=O)cc3)cc2)cc1OC` (stereo unspecified), the TGI is over 100 µM.

In the case of `C=CCC1(OCc2ccccc2)C(=O)C(=O)OC1C1COC(C)(C)O1` (stereo unspecified), the TGI was over 100 µM.

The next assay relates to NCI-H460 lung. Nature of the assay: growth of human tumour cells (NCI), 48 h.
With `COc1cc2c(cc1OC)C1C=NC(C2)c2cc(OC)c(OC)cc21` (stereo unspecified), the TGI is over 100 µM.

`COc1ccc(C2SCC(=O)N2c2ccc(-c3ccc(-n4c(-c5ccccc5)nc5ccccc5c4=O)cc3)cc2)cc1OC` (stereo unspecified) had a TGI of over 100 µM.

As to `C=CCC1(OCc2ccccc2)C(=O)C(=O)OC1C1COC(C)(C)O1` (stereo unspecified), the TGI is over 100 µM.

The test system of another assay is ACHN renal. In words: growth of human tumour cells (NCI), 48 h.
Turning to `COc1cc2c(cc1OC)C1C=NC(C2)c2cc(OC)c(OC)cc21` (stereo unspecified), the TGI is over 100 µM.

For `CCC1(c2ccccc2)C(=O)N=C(c2ccccc2)N1CCc1ccccc1` (stereo unspecified), the TGI was over 100 µM.

In the case of `C=CCC1(OCc2ccccc2)C(=O)C(=O)OC1C1COC(C)(C)O1` (stereo unspecified), the TGI is over 100 µM.

In a further assay the test system is MCF7 breast. In words: growth of human tumour cells (NCI), 48 h.
Molecule `COc1cc2c(cc1OC)C1C=NC(C2)c2cc(OC)c(OC)cc21` (stereo unspecified) came in with a TGI of over 100 µM.

As to `CCC1(c2ccccc2)C(=O)N=C(c2ccccc2)N1CCc1ccccc1` (stereo unspecified), the TGI is over 100 µM.

Molecule `COc1ccc(C2SCC(=O)N2c2ccc(-c3ccc(-n4c(-c5ccccc5)nc5ccccc5c4=O)cc3)cc2)cc1OC` (stereo unspecified) came in with a TGI of over 100 µM.

`C=CCC1(OCc2ccccc2)C(=O)C(=O)OC1C1COC(C)(C)O1` (stereo unspecified) showed a TGI of over 100 µM.

For a further assay, the system named is MOLT-4 leukemia. Nature of the assay: growth of human tumour cells (NCI), 48 h.
In turn, `COc1cc2c(cc1OC)C1C=NC(C2)c2cc(OC)c(OC)cc21` (stereo unspecified) returned a TGI of over 100 µM.

As to `CCC1(c2ccccc2)C(=O)N=C(c2ccccc2)N1CCc1ccccc1` (stereo unspecified), the TGI is over 100 µM.

The molecule `COc1ccc(C2SCC(=O)N2c2ccc(-c3ccc(-n4c(-c5ccccc5)nc5ccccc5c4=O)cc3)cc2)cc1OC` (stereo unspecified) showed a TGI of over 100 µM.

Regarding `C=CCC1(OCc2ccccc2)C(=O)C(=O)OC1C1COC(C)(C)O1` (stereo unspecified), the TGI is over 100 µM.

The test system of another assay is TK-10 renal. Nature of the assay: growth of human tumour cells (NCI), 48 h.
With `COc1cc2c(cc1OC)C1C=NC(C2)c2cc(OC)c(OC)cc21` (stereo unspecified), the TGI was over 100 µM.

As to `CCC1(c2ccccc2)C(=O)N=C(c2ccccc2)N1CCc1ccccc1` (stereo unspecified), the TGI is over 100 µM.

For the molecule `COc1ccc(C2SCC(=O)N2c2ccc(-c3ccc(-n4c(-c5ccccc5)nc5ccccc5c4=O)cc3)cc2)cc1OC` (stereo unspecified), the TGI came to 83.9 µM.

In the case of `C=CCC1(OCc2ccccc2)C(=O)C(=O)OC1C1COC(C)(C)O1` (stereo unspecified), the TGI was over 100 µM.

The test system of the next assay is OVCAR-3 ovarian. Nature of the assay: growth of human tumour cells (NCI), 48 h.
Consider `COc1cc2c(cc1OC)C1C=NC(C2)c2cc(OC)c(OC)cc21` (stereo unspecified), for which the TGI is over 100 µM.

In the case of `CCC1(c2ccccc2)C(=O)N=C(c2ccccc2)N1CCc1ccccc1` (stereo unspecified), the TGI is over 100 µM.

`COc1ccc(C2SCC(=O)N2c2ccc(-c3ccc(-n4c(-c5ccccc5)nc5ccccc5c4=O)cc3)cc2)cc1OC` (stereo unspecified): the TGI was over 100 µM.

Consider `C=CCC1(OCc2ccccc2)C(=O)C(=O)OC1C1COC(C)(C)O1` (stereo unspecified), for which the TGI is over 100 µM.

A further assay has as its system HCT-15 colon. Nature of the assay: growth of human tumour cells (NCI), 48 h.
On to `COc1cc2c(cc1OC)C1C=NC(C2)c2cc(OC)c(OC)cc21` (stereo unspecified), for which the TGI was over 100 µM.
